Columns and labels:
HLA-A*02:01 = HLA-A*02:01 (Homo sapiens, UniProt P04439, D140Y/D185E/D98H/E176V/E277Q/G131W/G231S/I119V/I121R/I166T/I218V/L300P/L318F/N151K/N90K/P208A/P217A/Q86G/Q94H/R138H/R169H/T345S); experiment: In vitro binding of neoantigens to class I MHC (UV peptide exchange, HLA class I ELISA); conditions: 100% = same binding affinity as positive control peptide
Protocol: The 9 mer peptides identified by bioinformatics analysis were analyzed for their binding propensities to 6 common HLA class I alleles (HLA-A*01:01, A*02:01, A*03:01, A*24:02, B*07:02, B*08:01). The principle of the method is briefly described below and consists of two parts, one involving exchange of peptide with a positive control induced by Ultraviolet (UV) radiation, and the second is an enzyme immunoassay to detect stable HLA-peptide and empty HLA complexes.
HLA-bound peptides are critical for the stability of the HLA complex.
The exchange efficiency between the peptide of interest and Pos was analyzed using an HLA class I ELISA. The combined technologies allowed the identification of ligands for an HLA molecule of interest which are potentially immunogenic.
The UV control represented UV-irradiation of conditional HLA class I complex in the absence of a rescue peptide.
The HLA class I ELISA is an enzyme immunoassay based on the detection of beta2-microglobulin (B2M) of (peptide-stabilized) HLA class I complexes. To this end streptavidin was bound onto polystyrene microtiter wells. After washing and blocking, HLA complex present in exchange reaction mixtures or ELISA controls was captured by the streptavidin on the microtiter plate via its biotinylated heavy chain. Non-bound material was removed by washing. Subsequently, horseradish peroxidase (HRP)-conjugated antibody to human B2M was added. […] In the latter case B2M was removed during the washing step. After removal of non-bound HRP conjugate by washing, a substrate solution was added to the wells. A coloured product formed in proportion to the amount of intact HLA complex present in the samples. After the reaction was terminated by the addition of a stop solution, absorbance was measured in a microtiter plate reader. […] Suboptimal HLA binding of peptides with a moderate to low affinity for HLA class I molecules can also be detected by this ELISA technique (Rodenko, B et al. (2006) Nature Protocols 1: 1120-32).
Binding of select neoepitopes to HLA-A*01:01, HLA-A*02:01, HLA-A*03:01, HLA-A*24:02, HLA-B*07:02 and HLA-B*08:01 was evaluated using the assay described in Example 1. […] As a criterion for further evaluation, peptides with an exchange rate of at least […] with the corresponding Pos peptide for at least one of the 6 HLA alleles that we considered for further evaluation. […] Higher percentages correspond to stronger binding to the HLA allele.

[1] = tested on: autologous CD3+ Pan-T cells (CD8+ and CD4+ T cells) with Ad5-transduced CD1c+ Dendritic Cells; experiment: Endogenous autologous normal donor restimulation assay (Ad5-transduced dendritic cells); format: cell-based, human; conditions: Table 27, restimulation with overlapping 15-mer peptide pools, maximum across sixteen donors
Protocol: CD1c+ Dendritic Cells (DC) isolated from human normal PBMCs were thawed using media (IMDM (Gibco) supplemented with glutamine, HEPES, 5% human serum (Sigma), and 1× Pen-Strep). DC cells were resuspended in media supplemented with IL-4 (Peprotech, 80 ng/mL) and GM-CSF (Gibco, 80 ng/mL), plated in 6 well microplates, and rested overnight at 37° C. (5% CO2). The following day, DC cells were counted and plated in a 96 well round bottom microplate at a concentration of 30,000 viable cells per well. Ad5 vectors (Vector Biolabs) were dilute in media to an MOI (Multiplicity Of Infection) of 5000 based on Plaque Forming Units. Ad5 vectors for the CEF pool and a “null” were used as controls. DCs were transduced with Ad5 vectors overnight at 37° C. (5% CO2). The following day, the Ad5 vectors were washed off the plate by three sequential centrifugation/aspiration steps using sterile Phosphate Buffered Saline. After the final wash, transduced DCs were resuspended in 100 μL media. Autologous CD3+ Pan-T cells isolated from human normal PBMCs were thawed using media. Pan-T cells were added to the irradiated DCs at 300,000 viable cells per well (100 μL/well). Human IL-15 (Peprotech) was added to all wells at final concentration of 10 ng/mL.
Plates were incubated at 37° C. (5% CO2) for a total of 12 days. Media was refreshed every 2-3 days with IL-15 (10 ng/mL final concentration) and IL-2 (R&D systems, 10 IU/mL final concentration). On day 11 lyophilized peptides (15-mer overlapping peptides) were solubilized in 100% DMSO and pooled by neoantigen to between 5 mg/mL and 20 mg/mL. […]
On day 12, cells were stained for intracellular flow cytometry analysis. […] Cells were washed and resuspended in stain buffer and analyzed using a BD Celesta flow cytometer.
Flow cytometry cell staining analysis was completed using FlowJo v10. […] The CD8+ and CD4+ T cells were analyzed for TNFα/IFNγ expression and the frequency of double positive TNFα/IFNγ CD8+ and the frequency of double positive TNFα/IFNγ CD4+ T cells were recorded. Responses were assessed to be positive when the frequency of double positive TNFα/IFNγ CD8+ or TNFα/IFNγ CD4+ T cells due to stimulation with an experimental peptide pool was increased greater than or equal to 3-fold over the DMSO only negative control for that donor and at least 0.01%.
For three of the neoantigens, an Ad5 vector was designed to transduce normal Dendritic cells with the neoantigens. This assay assessed the ability of the endogenously expressed and presented neoantigens to activate autologous T cells following overlapping 15-mer peptide pools restimulation using the endogenous autologous normal donor restimulation assay described in Example 1 utilizing TNFα and IFNγ production by CD8^+ and CD4^+ T cells as a readout. […]

| Sequence | Exchange rate with the allele specific Pos peptide, HLA-A*02:01 (HLA-A*02:01) [%] | Maximum Fold Change Over Background CD4+ cells [1] | Maximum Fold Change Over Background CD8+ cells [1] | Maximum Frequency of TNFα/IFNγ Double Positive CD4+ T cells [1] | Maximum Frequency of TNFα/IFNγ Double Positive CD8+ T cells [1] |
| --- | --- | --- | --- | --- | --- |
| YEAGMTLGEKFRVGNCKHLKMTRP [Neoantigen P82] | 6.3 | – | – | – | – |
| SLYHREKQLIAMDSAI [Neoantigen P22] | 46.9 | – | – | – | – |
| YEAGMTLGGKILFFLFLLLPLSPFSLIF [Neoantigen P87] | 64 | 2.41 | 2.47 | 0.079 | 0.39 |

Reference: patent publication US20230035403A1, “Method For Determining Responsiveness To Prostate Cancer Treatment” (Janssen Biotech, Inc., priority 2020, published 2023)
